# Measurements: ChEMBL document CHEMBL1201862, “PubChem BioAssay data set” (2004)
# Activity calls are given as the source filed them.
# What was measured:
# Mu-type opioid receptor = Mu-type opioid receptor (Homo sapiens, UniProt P35372); format: functional, cell-based;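 also: U2OS cells with beta-arrestin recruitment to OPRM1 by beta-gal complementation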
# [1] = biological target: 5-hydroxytryptamine receptor 2A (Mus musculus, UniProt P35363); format: functional, cell-based;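 also: CHO-K1 cells with tagged receptor and beta-arrestin; agonist potency measured as compound-induced activation of the receptor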
# Sequence of 5-hydroxytryptamine receptor 2A (P35363 whole entry): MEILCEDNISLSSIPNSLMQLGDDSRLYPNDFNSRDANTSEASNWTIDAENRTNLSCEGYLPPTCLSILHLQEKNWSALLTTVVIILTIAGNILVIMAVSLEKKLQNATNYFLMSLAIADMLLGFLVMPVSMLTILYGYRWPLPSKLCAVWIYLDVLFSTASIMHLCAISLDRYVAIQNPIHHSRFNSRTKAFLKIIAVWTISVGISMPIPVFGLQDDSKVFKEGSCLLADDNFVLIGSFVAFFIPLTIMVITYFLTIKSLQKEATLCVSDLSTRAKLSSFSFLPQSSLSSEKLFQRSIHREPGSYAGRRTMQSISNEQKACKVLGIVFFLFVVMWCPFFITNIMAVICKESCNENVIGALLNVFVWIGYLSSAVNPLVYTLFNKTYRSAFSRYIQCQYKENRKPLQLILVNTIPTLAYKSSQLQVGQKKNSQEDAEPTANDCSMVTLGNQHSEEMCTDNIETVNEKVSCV
# [2] = biological target: Voltage-gated inwardly rectifying potassium channel KCNH2 (Homo sapiens, UniProt Q12809); settings: Potency;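 also: confirmatory quantitative high-throughput screen measuring inhibition of hERG channel activity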
# Sequence of Voltage-gated inwardly rectifying potassium channel KCNH2 (Q12809 whole entry): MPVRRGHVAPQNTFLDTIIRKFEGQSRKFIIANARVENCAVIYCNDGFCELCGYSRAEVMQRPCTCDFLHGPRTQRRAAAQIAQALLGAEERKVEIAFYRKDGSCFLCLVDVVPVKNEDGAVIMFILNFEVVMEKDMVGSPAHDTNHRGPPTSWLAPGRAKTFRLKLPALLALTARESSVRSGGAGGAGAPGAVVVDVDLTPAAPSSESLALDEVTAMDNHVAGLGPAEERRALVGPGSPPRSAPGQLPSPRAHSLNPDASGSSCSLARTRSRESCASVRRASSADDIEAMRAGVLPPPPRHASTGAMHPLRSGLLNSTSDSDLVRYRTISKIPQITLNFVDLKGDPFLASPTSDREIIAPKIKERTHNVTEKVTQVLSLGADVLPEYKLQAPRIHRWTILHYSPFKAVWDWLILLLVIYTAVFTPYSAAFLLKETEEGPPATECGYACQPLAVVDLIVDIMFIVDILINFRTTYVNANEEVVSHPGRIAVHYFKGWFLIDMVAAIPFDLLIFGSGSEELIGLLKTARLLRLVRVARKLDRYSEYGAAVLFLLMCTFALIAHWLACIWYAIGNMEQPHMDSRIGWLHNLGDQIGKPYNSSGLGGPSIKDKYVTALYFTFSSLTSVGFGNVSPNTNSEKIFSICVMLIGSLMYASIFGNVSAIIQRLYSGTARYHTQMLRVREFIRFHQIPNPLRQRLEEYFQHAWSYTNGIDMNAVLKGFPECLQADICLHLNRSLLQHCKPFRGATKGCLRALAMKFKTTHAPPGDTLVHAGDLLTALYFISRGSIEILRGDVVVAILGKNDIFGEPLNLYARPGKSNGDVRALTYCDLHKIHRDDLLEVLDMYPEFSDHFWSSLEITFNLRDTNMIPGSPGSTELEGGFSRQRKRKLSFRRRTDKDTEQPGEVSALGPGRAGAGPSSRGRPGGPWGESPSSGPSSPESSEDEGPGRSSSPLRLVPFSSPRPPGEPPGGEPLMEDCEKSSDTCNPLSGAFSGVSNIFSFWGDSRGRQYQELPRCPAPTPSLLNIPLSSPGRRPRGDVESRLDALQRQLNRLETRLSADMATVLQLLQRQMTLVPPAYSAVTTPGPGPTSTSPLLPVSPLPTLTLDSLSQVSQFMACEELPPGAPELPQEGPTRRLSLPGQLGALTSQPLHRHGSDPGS
# [3] = cytotoxicity toward NIH3T3 fibroblasts, dose response, counter-screen, cell-based, ATP luminescence, mouse fibroblasts (AID 2010); format: functional;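 also: cells exposed to compound for about 90 hours before reading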
# [4] = biological target: T1, Ubiquitin-conjugating enzyme E2 N (Homo sapiens, UniProt P61088); format: functional
# T1 sequence (P61088 whole entry): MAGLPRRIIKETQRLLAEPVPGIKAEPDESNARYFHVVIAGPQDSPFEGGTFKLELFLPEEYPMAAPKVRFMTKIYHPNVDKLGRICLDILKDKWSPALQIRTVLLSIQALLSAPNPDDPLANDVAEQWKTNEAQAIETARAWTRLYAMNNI
# [5] = inhibitors of intracellular T. cruzi replication, confirmation, NIH3T3 host cells, beta-gal luminescence (AID 2044); format: functional, cell-based;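 also: intracellular parasites grown in NIH/3T3 mouse fibroblasts as host cells; luminescent beta-galactosidase reporter signal from transgenic T. cruzi replicating inside host cells; inhibitors lower the luminescence signal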
# [6] = microbe, parasite or virus in culture; format: functional; settings: Mycobacterium tuberculosis
# Bcl-2-related protein A1 = biological target: T2, Bcl-2-related protein A1 (Mus musculus, UniProt Q07440); format: functional;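 also: confirmatory dose–response counterscreen on Bfl-1, used to check hits from a UBC13 polyubiquitin inhibitor campaign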
# T2 sequence (Q07440 whole entry): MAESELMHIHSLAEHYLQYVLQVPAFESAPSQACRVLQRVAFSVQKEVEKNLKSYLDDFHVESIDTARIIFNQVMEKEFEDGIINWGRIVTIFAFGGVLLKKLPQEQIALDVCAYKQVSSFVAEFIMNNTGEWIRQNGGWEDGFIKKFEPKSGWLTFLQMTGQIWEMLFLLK
# [7] = biological target: T1, Ubiquitin-conjugating enzyme E2 N; format: functional; remark: listed apart in the source
# Coagulation factor XII = biological target: T3, Coagulation factor XII (Homo sapiens, UniProt P00748); format: functional;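 also: activated factor XIIa alpha cleaving a fluorogenic AMC peptide substrate; inhibitor potency from loss of enzyme activity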
# T3 sequence (P00748 whole entry): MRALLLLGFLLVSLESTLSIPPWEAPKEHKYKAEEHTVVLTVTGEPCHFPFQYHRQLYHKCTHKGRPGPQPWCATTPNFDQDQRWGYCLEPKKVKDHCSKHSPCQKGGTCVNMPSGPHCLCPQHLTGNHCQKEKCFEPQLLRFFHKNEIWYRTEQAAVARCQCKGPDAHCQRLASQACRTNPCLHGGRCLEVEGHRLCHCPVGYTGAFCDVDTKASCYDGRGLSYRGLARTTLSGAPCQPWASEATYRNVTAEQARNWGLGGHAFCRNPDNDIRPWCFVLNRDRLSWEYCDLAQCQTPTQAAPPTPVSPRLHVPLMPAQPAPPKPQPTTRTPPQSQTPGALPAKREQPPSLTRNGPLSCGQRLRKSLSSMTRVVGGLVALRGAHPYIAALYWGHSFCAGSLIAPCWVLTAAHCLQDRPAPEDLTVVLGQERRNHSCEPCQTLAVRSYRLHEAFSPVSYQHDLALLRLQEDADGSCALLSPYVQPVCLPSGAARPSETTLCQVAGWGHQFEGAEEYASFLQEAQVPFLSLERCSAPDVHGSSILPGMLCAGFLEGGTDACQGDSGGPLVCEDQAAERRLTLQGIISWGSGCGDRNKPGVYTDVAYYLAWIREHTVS
# [8] = biological target: T4, Mannose-6-phosphate isomerase (Homo sapiens, UniProt P34949); test: PMI enzyme inhibitors, confirmation, biochemical, fluorescence intensity (AID 1535)
# T4 sequence (P34949 whole entry): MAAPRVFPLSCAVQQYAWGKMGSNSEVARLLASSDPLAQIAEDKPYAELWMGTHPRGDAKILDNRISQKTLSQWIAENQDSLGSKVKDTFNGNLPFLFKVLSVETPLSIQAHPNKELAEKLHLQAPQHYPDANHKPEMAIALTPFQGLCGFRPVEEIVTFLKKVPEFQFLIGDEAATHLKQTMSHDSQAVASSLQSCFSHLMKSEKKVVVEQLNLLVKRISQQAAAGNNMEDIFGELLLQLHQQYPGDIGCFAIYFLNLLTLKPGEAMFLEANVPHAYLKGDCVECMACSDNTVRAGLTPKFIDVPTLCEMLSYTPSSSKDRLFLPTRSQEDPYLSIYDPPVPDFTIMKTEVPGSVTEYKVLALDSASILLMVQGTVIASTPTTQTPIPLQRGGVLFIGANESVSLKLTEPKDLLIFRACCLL
# Phosphomannomutase 2 = biological target: T5, Phosphomannomutase 2 (Homo sapiens, UniProt O15305); test: Counter screen SAR assay for PMM2 inhibitors via a fluorescence intensity assay. [Related pubchem assays (depositor defined):AID1545, AID1574]
# T5 sequence (O15305 whole entry): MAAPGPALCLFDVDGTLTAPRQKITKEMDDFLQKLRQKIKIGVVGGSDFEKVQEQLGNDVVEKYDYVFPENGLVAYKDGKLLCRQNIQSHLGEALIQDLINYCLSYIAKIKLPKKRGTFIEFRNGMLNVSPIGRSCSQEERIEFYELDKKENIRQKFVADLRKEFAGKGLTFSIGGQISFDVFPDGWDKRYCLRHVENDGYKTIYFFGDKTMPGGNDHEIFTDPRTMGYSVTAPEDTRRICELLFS
# Cytochrome P450 2C9 = Cytochrome P450 2C9 (Homo sapiens, UniProt P11712)
# Sequence of Cytochrome P450 2C9 (P11712 whole entry): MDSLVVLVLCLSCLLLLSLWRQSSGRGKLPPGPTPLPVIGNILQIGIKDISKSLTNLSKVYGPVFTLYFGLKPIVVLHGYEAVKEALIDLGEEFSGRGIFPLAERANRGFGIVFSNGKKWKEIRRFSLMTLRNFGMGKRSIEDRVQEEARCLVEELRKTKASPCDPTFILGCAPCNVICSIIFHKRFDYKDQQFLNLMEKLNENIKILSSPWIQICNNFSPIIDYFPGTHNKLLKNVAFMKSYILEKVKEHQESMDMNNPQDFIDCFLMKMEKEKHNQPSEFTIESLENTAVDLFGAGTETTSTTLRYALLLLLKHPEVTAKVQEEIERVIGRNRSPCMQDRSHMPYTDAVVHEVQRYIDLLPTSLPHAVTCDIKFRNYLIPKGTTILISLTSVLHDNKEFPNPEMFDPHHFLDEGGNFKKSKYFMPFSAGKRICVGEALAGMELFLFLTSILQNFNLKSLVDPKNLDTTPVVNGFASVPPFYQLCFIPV
# [9] = inhibitors of SNCA 5'UTR-driven reporter translation, confirmation, H4 neuroglioma cells, luminescence (AID 1988); format: functional, cell-based
# HEK293 = test: cytotoxicity in HEK293T NF-kB-Luc cells, SAR follow-up, cytotoxicity control for NF-kB activator project, cell-based, resazurin fluorescence (AID 493251); format: functional; settings: Homo sapiens
# [10] = biological target: T6, Heat shock factor protein 1 (Mus musculus, UniProt P38532); test: inhibition of MG132-induced HSE-luciferase signal, confirmation, cell-based, NIH3T3, luminescence, dose retest (AID 2382); format: functional;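 also: NIH3T3 fibroblasts with HSF1-driven luciferase reporter stressed by proteasome inhibitor MG132; luminescence from HSF1-driven luciferase expression after 8 hours of MG132 stress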
# T6 sequence (P38532 whole entry): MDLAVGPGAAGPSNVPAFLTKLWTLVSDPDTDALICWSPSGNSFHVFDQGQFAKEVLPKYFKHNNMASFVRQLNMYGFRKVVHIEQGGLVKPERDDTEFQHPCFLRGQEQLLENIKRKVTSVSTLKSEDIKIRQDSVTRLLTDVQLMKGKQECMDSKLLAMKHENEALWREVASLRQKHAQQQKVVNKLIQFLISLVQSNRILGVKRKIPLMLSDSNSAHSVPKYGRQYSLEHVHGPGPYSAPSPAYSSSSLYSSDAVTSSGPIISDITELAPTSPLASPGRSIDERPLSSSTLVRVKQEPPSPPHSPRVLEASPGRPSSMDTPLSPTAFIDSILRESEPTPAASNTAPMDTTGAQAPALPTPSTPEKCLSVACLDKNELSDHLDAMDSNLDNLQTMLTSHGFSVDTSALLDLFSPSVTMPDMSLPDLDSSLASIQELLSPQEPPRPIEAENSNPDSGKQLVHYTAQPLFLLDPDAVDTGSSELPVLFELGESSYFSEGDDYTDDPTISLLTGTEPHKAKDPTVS
# [11] = inhibitors of firefly luciferase expression or activity, dose response, H4 neuroglioma cells, luminescence (AID 1990); format: functional, cell-based
# [12] = biological target: Dual specificity tyrosine-phosphorylation-regulated kinase 1A (Rattus norvegicus, UniProt Q63470); format: biochemical, Homo sapiens
# [13] = biological target: Peroxisome proliferator-activated receptor gamma/Nuclear receptor coactivator 2 (Homo sapiens, UniProt P37231); test: (§1) TR-FRET dose response biochemical High Throughput Screening assay for agonists of the steroid receptor coactivator 2 (SRC-2) recruitment by the peroxisome proliferator-activated receptor gamma (PPAR gamma): non-selective agonists. [Related pubchem assays: 1297, 1032 ]; format: functional
# [14] = biological target: Peroxisome proliferator-activated receptor gamma/Nuclear receptor coactivator 3 (Homo sapiens, UniProt P37231); test: as §1, with “3 (SRC-3)” for “2 (SRC-2)”, “1301 (Confirmation screen.), 1048 (Primary screen.)]” for “1297, 1032 ]”; format: functional
# Sequence of Peroxisome proliferator-activated receptor gamma/Nuclear receptor coactivator 3 (P37231 whole entry): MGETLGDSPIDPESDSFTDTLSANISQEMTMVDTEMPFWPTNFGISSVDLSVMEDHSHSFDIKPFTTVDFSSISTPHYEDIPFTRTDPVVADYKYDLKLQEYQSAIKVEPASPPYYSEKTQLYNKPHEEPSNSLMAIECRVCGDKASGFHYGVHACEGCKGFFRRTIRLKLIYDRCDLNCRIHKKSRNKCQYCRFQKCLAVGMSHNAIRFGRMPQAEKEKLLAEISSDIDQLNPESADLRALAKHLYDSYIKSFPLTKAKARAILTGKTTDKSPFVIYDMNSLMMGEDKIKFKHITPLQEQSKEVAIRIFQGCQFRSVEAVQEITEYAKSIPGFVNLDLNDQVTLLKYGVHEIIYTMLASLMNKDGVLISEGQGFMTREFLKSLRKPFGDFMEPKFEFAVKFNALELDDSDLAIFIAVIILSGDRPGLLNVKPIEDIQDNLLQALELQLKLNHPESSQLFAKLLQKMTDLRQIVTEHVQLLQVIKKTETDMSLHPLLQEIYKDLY
# Sequence of Peroxisome proliferator-activated receptor gamma/Nuclear receptor coactivator 3 (Q9Y6Q9 whole entry, further chain): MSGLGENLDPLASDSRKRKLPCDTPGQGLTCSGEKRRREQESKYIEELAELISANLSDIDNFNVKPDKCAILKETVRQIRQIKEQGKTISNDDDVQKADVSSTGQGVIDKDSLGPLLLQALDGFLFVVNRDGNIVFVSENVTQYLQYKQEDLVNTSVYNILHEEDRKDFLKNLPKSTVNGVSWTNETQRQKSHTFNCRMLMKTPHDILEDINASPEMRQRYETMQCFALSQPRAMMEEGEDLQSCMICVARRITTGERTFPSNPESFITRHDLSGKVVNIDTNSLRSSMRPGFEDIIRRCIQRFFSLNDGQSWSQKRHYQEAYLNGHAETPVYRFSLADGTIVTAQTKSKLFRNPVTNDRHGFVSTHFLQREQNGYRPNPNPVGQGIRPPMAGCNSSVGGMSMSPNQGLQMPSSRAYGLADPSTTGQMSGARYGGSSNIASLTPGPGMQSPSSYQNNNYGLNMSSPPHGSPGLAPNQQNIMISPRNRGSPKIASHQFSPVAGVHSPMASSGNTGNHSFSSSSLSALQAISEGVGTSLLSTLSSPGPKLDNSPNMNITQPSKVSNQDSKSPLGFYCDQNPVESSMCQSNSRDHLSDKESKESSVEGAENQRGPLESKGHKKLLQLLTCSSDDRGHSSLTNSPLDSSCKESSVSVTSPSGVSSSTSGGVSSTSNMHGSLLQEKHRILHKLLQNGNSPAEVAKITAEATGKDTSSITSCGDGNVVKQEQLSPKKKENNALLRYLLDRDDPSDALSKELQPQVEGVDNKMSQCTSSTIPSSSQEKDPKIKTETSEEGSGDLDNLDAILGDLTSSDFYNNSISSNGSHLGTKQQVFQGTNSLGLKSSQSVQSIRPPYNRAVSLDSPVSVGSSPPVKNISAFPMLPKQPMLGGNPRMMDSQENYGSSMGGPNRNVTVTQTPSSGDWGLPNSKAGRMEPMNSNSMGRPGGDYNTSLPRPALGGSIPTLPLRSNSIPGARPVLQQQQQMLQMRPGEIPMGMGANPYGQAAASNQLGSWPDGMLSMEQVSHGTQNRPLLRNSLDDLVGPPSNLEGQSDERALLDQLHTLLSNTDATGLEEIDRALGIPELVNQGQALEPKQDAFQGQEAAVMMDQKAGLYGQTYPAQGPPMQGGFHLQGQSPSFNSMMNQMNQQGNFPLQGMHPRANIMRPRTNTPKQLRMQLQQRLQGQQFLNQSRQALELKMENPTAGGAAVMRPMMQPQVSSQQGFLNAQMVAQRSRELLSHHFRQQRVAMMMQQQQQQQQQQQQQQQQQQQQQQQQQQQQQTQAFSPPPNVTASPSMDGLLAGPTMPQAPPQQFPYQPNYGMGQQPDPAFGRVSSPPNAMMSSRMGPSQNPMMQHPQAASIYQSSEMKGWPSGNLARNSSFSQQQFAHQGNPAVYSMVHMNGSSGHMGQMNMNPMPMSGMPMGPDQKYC
# [15] = biological target: Peroxisome proliferator-activated receptor gamma/Nuclear receptor coactivator 1 (Homo sapiens, UniProt P37231); test: as §1, with “1 (SRC-1)” for “2 (SRC-2)”, “assays (depositor defined):AID1300, AID1808, AID504735, AID631]” for “assays: 1297, 1032 ]”; format: protein assay
# CAAX prenyl protease 2 = biological target: T7, CAAX prenyl protease 2 (Saccharomyces cerevisiae S288c, UniProt Q03530); format: biochemical
# T7 sequence (Q03530 whole entry): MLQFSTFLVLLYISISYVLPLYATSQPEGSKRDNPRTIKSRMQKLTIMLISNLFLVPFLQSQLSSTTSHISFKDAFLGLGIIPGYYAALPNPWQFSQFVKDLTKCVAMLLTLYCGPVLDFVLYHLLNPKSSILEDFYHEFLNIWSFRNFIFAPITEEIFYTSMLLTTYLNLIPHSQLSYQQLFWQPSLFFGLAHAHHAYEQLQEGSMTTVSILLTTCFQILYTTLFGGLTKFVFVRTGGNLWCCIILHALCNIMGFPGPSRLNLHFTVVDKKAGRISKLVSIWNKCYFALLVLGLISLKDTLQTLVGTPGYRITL
# Hexokinase = biological target: T8, Hexokinase (Trypanosoma brucei, UniProt Q38C41); test: Confirmation assay for inhibitors of Trypanosoma brucei hexokinase 1-Analogue-first series. [Related pubchem assays (depositor defined):AID1430, AID1632, AID2516, AID2560, AID2579, AID2600, AID449725, AID492951]; format: functional
# T8 sequence (Q38C41 whole entry): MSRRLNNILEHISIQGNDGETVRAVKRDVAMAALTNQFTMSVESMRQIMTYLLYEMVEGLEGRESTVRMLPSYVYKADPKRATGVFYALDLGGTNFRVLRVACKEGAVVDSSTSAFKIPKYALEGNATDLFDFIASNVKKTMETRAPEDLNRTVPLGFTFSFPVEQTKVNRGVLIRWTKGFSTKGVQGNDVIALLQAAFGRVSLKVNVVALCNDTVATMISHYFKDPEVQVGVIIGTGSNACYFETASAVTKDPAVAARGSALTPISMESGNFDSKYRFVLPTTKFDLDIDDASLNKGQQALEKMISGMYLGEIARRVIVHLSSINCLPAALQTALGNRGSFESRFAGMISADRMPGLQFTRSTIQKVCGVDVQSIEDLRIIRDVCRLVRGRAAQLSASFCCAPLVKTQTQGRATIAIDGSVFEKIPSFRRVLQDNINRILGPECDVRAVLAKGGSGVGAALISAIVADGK
# Sequence of Mu-type opioid receptor (P35372 whole entry): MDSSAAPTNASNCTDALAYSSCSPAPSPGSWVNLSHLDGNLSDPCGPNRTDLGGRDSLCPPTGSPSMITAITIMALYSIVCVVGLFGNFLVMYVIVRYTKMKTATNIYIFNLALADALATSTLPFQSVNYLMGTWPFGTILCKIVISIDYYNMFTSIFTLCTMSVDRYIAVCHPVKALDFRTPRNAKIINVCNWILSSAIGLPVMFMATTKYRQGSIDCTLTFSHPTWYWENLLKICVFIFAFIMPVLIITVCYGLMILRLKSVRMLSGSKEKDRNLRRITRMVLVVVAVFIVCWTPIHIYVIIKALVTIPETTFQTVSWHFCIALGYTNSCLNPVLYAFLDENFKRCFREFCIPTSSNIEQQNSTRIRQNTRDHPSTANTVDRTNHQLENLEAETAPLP
structure (smiles),measurement,setting,value
Cn1cc(C(F)(F)F)nc1-c1ccc(OCC(O)CNCCOc2ccc(O)c(C(N)=O)c2)cc1 (configuration not stated),EC50,Mu-type opioid receptor,92.4 µM (inactive)
same,EC50,[1],0.0952 µM (active)
same,AC50,[2],25.1 µM (inconclusive)
CC1Cc2cc3c(cc2C(c2ccc(N)cc2)=NN1)OCO3 (configuration not stated),AC50,[2],35.5 µM (inconclusive)
CCCCN(C)CCNC(=O)c1ccc(Cn2c(=S)[nH]c3ccc(Br)cc3c2=O)cc1,EC50,[3],> 60 µM (not active)
same,IC50,[4],19.5 µM (active)
same,EC50,[5],0.606 µM (active)
same,CC50,[6],19.1 µM (active)
same,IC50,Bcl-2-related protein A1,> 20 µM (inactive)
same,IC50,[7],> 20 µM (inactive)
CCC(C)NC(=O)CSc1nc2ccsc2c(=O)n1NC(=O)c1ccccc1 (configuration not stated),IC50,Coagulation factor XII,> 50 µM (inactive)
Cc1ccc(C=Nn2c(-c3ccncc3)n[nH]c2=S)cc1,IC50,[8],16.1 µM (active)
same,IC50,Phosphomannomutase 2,> 100 µM (inactive)
Cc1cccc(C(=O)NC(=S)N2CCN(C)CC2)c1,AC50,Cytochrome P450 2C9,inconclusive
NC(Cc1cccc(-c2ccccc2CP(=O)(O)O)c1)C(=O)O (configuration not stated),AC50,[2],35.5 µM (inconclusive)
C[C@@H](O)C1NC(=O)[C@H](CCCCN)NC(=O)c2cc([N+](=O)[O-])cc(F)c2NCCCC[C@@H](C(N)=O)NC1=O (some centres not stated),IC50,[4],14.2 µM (active)
same,IC50,Bcl-2-related protein A1,> 20 µM (inactive)
same,IC50,[7],> 20 µM (inactive)
O=C(NCC(=O)N1CCN(S(=O)(=O)/C=C/c2ccccc2)CC1)c1ccccc1F,IC50,Coagulation factor XII,> 50 µM (inactive)
CCc1ccc(-c2nc(CSCC(=O)NCc3ccco3)c(C)o2)cc1,EC50,[9],12.8 µM (active)
same,IC50,HEK293,> 80 µM (inactive)
same,EC50,[10],0.462 µM (active)
same,EC50,[11],14.5 µM (active)
O=C(O)c1cccc(CN2CCCCC2)c1,AC50,Cytochrome P450 2C9,inconclusive
O=C1NC(=S)S/C1=C/c1ccc(Oc2cnccn2)cc1,AC50,[12],2.81 µM (active)
CC(=O)c1sc(N2CCOCC2)nc1-c1ccccc1,EC50,[13],> 8.82 µM (not active)
same,EC50,[14],> 79.4 µM (not active)
same,EC50,[15],> 26.5 µM (inactive)
CCN(CCCNC(=O)CSc1cc(=O)n(C)c2cc(Cl)ccc12)Cc1ccccc1,EC50,[13],> 79.4 µM (not active)
same,EC50,[14],> 79.4 µM (not active)
same,EC50,[15],> 79.4 µM (inactive)
CN(C)S(=O)(=O)c1ccc(NC(=O)/C=C/c2ccccc2Cl)cc1,AC50,CAAX prenyl protease 2,4.18 µM (active)
Cc1cc(C)c2sc(N(CCCN(C)C)C(=O)c3ccc(S(=O)(=O)N(C)Cc4ccccc4)cc3)nc2c1,IC50,[4],4.77 µM (active)
same,IC50,Bcl-2-related protein A1,> 20 µM (inactive)
same,IC50,[7],2.65 µM (active)
CCN1CCN(C(=O)CSc2cc(=O)n(C)c3ccccc23)CC1,EC50,[13],> 79.4 µM (not active)
same,EC50,[14],> 79.4 µM (not active)
same,EC50,[15],> 79.4 µM (inactive)
COc1ccc(/C=C(\C#N)C(N)=O)c(OC)c1,AC50,Cytochrome P450 2C9,inconclusive
O=C(Cn1sc2ccccc2c1=O)NCc1ccccc1,IC50,Hexokinase,5.72 µM (active)
CC(C)(C)c1ccc(C(=O)N2CCC(=O)c3ccc(Cl)cc32)cc1,IC50,Hexokinase,> 25 µM (inactive)
CCCCCCC(=O)Nc1cc(Cl)ccc1C(=O)O,IC50,Hexokinase,> 25 µM (inactive)
